# Values of other authors, collected in US5006550A, “Chroman esters of phenols and benzoic acids having retinoid-like activity” (Allergan, Inc., priority 1989, dated 1991).
# Test system: ornithine decarboxylase (ODC)
# Conditions: background statement on retinoic acid
compound,measurement,value
CC1=C(/C=C/C(C)=C/C=C/C(C)=C/C(=O)O)C(C)(C)CCC1 [Retinoic acid],inhibition of induction of ODC activity by TPA (in words),inhibits this induction of ODC activity by TPA
